Values joined by “and” are separate entries in the source; they are usually repeats but may differ in a detail not shown here. Equal entries are not always repeated.
What was measured:
[1] = system: murine neuroblastoma neuro-2A cells; settings: read-out: Neurotoxicity on neuro-2A cells (IC50); cited from earlier work
[2] = Neurotoxicity test, MTT-dye reduction assay on neuro-2A cells; assay type: cell-based, murine; settings: mouse, neuro-2A neuroblastoma cells, 72 h incubation
Description: The cytotoxicity of compound 8 was tested on neuro-2A cells as described in the Materials and Мethods section.
To assess the neurocytotoxicity of the selected compound, murine neuroblastoma neuro-2A cells (German collection DSMZ, Braunschweig, Germany) were used. They were cultivated under standard conditions: complete medium (90% DMEM, 10% heat-inactivated FBS, and non-essential amino acids); 37 °C and 5% CO2 in a fully humidified atmosphere. The cell line was kept in the logarithmic growth phase by splitting 1:4 once a week using trypsin/EDTA. About 30% of the cells grew like neuronal cells. For the experimental evaluation of the cytotoxicity, the cells were plated in 96-well flat-bottomed plates at the recommended density of around 1100 cells/25 cm^2. After 24 h, the cells were treated with a series of concentrations (100, 50, 25, 12.5, 6.25 µM) of the tested compound, and after 72 h incubation, an MTT-dye reduction assay was performed. MTT stock solution (10 mg/mL in PBS) was added (0.01 mL/well) at the end of incubation. Plates were further incubated at 37 °C for 4 h. Next, the formazan crystals were dissolved by the addition of 0.110 mL/well 5% formic acid in 2-propanol (v/v). Absorption was measured at 580 nm wavelength on an automated ELISA reader Labexim LMR1. […]

[3] = target: T1, acetylcholinesterase from Electrophorus electricus (eeAChE) (Electrophorus electricus, UniProt O42275); assay: biochemical; assay type: biochemical
T1 construct: purchased Sigma-Aldrich
Description: However, the docking simulations were conducted on human AChE (rhAChE).
The microplate assay used for measuring AChE inhibitory activity was as described by Ellman with the modifications added by López. Acetylthiocholine iodide (ATCI) in a solution with 5,5′-dithiobis(2-nitrobenzoic acid) (DTNB) was used as a substrate for the acetylcholinesterase from Electrophorus electricus (Steinheim, Sigma-Aldrich, Germany). 50 μL of AChE (0.25 U/mL) dissolved in phosphate buffer (8 mM K2HPO4, 2.3 mM NaH2PO4, 0.15 M NaCl, pH 7.5) and 50 μL of the sample dissolved in the same buffer were added to the wells. The plates were incubated for 30 min at room temperature before the addition of 100 μL of the substrate solution (0.04 M Na2HPO4, 0.2 mM DTNB, 0.24 mM ATCI, pH 7.5). […] Enzyme activity was calculated as an inhibition percentage compared to an assay using a buffer without any inhibitor. […] The AChE inhibitory data were analyzed with the software package Prism 9 (GraphPad Inc., San Diego, USA). The IC50 values were measured in triplicate, and the results are presented as means ± SD.

T1 sequence (O42275 24-633): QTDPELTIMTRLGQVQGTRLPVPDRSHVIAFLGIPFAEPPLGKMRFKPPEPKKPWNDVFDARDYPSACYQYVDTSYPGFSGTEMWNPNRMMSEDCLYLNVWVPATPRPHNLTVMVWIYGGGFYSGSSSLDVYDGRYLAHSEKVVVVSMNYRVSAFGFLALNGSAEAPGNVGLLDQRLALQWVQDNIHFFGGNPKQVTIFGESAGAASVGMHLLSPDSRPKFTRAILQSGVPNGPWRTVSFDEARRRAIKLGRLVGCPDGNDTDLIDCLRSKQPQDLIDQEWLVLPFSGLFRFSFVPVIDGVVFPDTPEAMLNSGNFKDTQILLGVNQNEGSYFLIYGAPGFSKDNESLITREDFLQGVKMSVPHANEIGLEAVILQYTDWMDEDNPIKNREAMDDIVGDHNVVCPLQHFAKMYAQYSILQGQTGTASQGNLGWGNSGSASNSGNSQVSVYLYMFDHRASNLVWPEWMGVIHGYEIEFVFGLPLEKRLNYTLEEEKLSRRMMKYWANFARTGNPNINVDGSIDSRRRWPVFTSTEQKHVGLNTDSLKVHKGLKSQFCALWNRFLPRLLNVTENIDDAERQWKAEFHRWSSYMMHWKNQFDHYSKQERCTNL

| SMILES | IC50 [1] [nM] | IC50 at 72 h [2] [nM] | Times more active than GAL (AChE inhibition) [3] [times] | IC50 ([3]; eeAChE, Ellman's method, 30 min preincubation, mean ± SD, triplicate, read-out: Inhibitory activity on eeAChE (IC50)) |
| --- | --- | --- | --- | --- |
| COc1ccc2c3c1O[C@H]1C[C@@H](O)C=C[C@@]31CCN(C)C2 [GAL, Galantamine] | > 50000 |  |  |  |
| COc1ccc2c3c1O[C@H]1C[C@@H](O)C=C[C@@]31CCN(CCNC(=O)CCc1ccccc1-c1ccccc1)C2 [Compound 8, 3-(biphenyl-2-yl)-N-{2-[(4aS,6R,8aS)-6-hydroxy-3-methoxy-5,6,9,10-tetrahydro-4aH-[1]benzofuro[3a,3,2-ef][2]benzazepin-11(12H)-yl]ethyl}propanamide] |  | > 100000 | 68 | 28 nM and 27.8 nM |

Reference: paper PMC8038331, “Discovery of a Novel Acetylcholinesterase Inhibitor by Fragment-Based Design and Virtual Screening” (Molecules, 2021)
